In patent publication US5776950:
Read-outs that look alike come from different tables or passages of the source.

Conditions: amide bond, 24-membered ring
[1] = 2-chloro-1-methylpyridinium iodide/TEA, DCM, 4.2 mM, 25.0 °C

Question: With “cyclo(D-2-hydroxy-3-phenylpropanoyl-L-prolyl-D-2-hydroxypropanoyl-N-methyl-L-leucyl-D-2-hydroxy-3-phenylpropanoyl-N-methyl-L-leucyl-D-2-hydroxypropanoyl-N-methyl-L-leucyl)” as the substance, how does the ring closure, isolated yield (2-chloro-1-methylpyridinium iodide/TEA, DCM, 5.9 mM, 25.0 °C) read?
Answer: 12%

Question: Which ring closure, isolated yield (2-chloro-1-methylpyridinium iodide/TEA, DCM, 4.75 mM, 25.0 °C) does the source give for “cvlo(D-2-hydroxypropanoyl-L-pipecolyl-D-2-hydroxypropanoyl-N-methyl-L-leucyl-D-2-hydroxypropanoyl-N-methyl-L-leucyl-D-2-hydroxypropanoyl-N-methyl-L-leucyl)” here?
Answer: 34%

Question: With “cyclo(D-2-hydroxypropanoyl-L-N-δ-tetrahydroquinoline-3-carboxyl-D-2- hydroxy-3-phenylpropanoyl-N-methyl-L-leucyl-D-2-hydroxypropanoyl-N-methyl-L-leucyl-D-2-hydroxy-3-phenylpropanoyl-N-methyl-L-leucyl)” as the substance, how does the ring closure, isolated yield [1] read?
Answer: 42%

Question: With “cylo(D-2-hydroxypropanoyl-L-N-α-tetrahydroquinoline-3-carboxyl-D-2-hydroxypropanoyl-N-methyl-L-leucyl-D-2-hydroxypropanoyl-N-methyl-L-leucyl-D- 2-hydroxypropanoyl-N-methyl-L-leucyl)” as the substance, how does the ring closure, isolated yield (2-chloro-1-methylpyridinium iodide/TEA, DCM, 6.0 mM, 25.0 °C) read?
Answer: 50%

Question: For “cyclo(D-2-hydroxy-3-phenylpropanoyl-L-pipecolyl-D-2-hydroxypropanoyl-N-methyl-L-leucyl-D-2-hydroxy-3-phenylpropanoyl-N-methyl-L-leucyl-D-2-hydroxypropanoyl-N-methyl-L-leucyl)”, which ring closure, isolated yield [1] is on record?
Answer: 50%

Question: Which ring closure, isolated yield (the molecule shown is the open-chain precursor, BOP-Cl/DIEA, CH2Cl2, 0.98 mM) does the source give for “H-MeLeu-dLac-MeLeu-dLac-MeLeu-[3-oxy-2-oxopiperidin-1-yl (delta-lactam, replaces Lac + N-Me)]Leu-dPhLac-OH?” here?
Answer: 48%

Question: Which ring closure, isolated yield (the molecule shown is the open-chain precursor, BOP-Cl/DIEA, CH2Cl2, 0.99 mM) does the source give for “H-MeLeu-dLac-MeLeu-dPhLac-MeLeu-[3-oxy-2-oxopiperidin-1-yl (delta-lactam, replaces Lac + N-Me)]Leu-dPhLac-OH?” here?
Answer: 65%
